Data from US20100120775A1, “Farnesoid X Receptor Agonists” (SMITHKLINE BEECHAM CORPORATION, priority 2006, published 2010).

Molecular target: T1, Human FXRα Ligand Binding Domain (Homo sapiens, UniProt Q96RI1)
T1 construct: polyhistidine (pRSET-A vector) (N); made in house; host or cells: E. coli BL21 (DE3), pRSET-A vector
T1 sequence (Q96RI1 237-472 isoform Q96RI1-2): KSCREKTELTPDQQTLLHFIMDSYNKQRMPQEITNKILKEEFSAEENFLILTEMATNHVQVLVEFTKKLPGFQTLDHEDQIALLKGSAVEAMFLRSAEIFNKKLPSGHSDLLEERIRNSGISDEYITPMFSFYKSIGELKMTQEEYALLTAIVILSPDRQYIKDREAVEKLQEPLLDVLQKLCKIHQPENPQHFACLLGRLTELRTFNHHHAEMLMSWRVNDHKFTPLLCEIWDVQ
Experiment: FXR Cofactor Binding Assay (FXR LBD / SRC-1 peptide, time resolved fluorescence)
Settings: FXRα LBD with biotinylated SRC-1 (LCD2, 676-700) peptide; for EC50: read-out: Activity (pEC50) (converted)
Excerpt: Determination of a ligand mediated cofactor peptide interaction to quantify ligand binding to the nuclear receptor Farnesoid X Receptor (FXR). The method measures the ability of putative ligands to modulate the interaction between the purified bacterial expressed FXRα ligand binding domain (LBD) and a synthetic biotinylated peptide based on residues 676-700 of steroid receptor coactivator-1 (SRC-1) (LXXLL-containing domain-2 where L is the amino acid leucine and X indicates any other amino acid (LCD2), 676-700). The sequence of the SRC-1 peptide used is as published in Iannone, M. A., et al., 2001 Cytometry 44:326-337 where the N-terminus was biotinylated (B) and the C-terminus was amidated. Detection of the associated complex was measured by time resolved fluorescence (TRF). The purified LBD of FXR was labeled with biotin then mixed with stoichiometric amounts of allophycocyanin (APC) labeled streptavidin (Molecular Probes). The biotinylated peptide was then mixed with a ½ stoichiometric amount of europium labeled streptavidin (Wallac Inc). Each was then blocked with a 5 fold excess of biotin and allowed to equilibrate for 15 min. Equimolar amounts of receptor and peptide were mixed together and were allowed to equilibrate for at least 30 min prior to the addition to either a variable or constant concentrations of the sample for which the affinity is to be determined. After equilibration, the time-resolved fluorescent signal was quantitated using a fluorescent plate reader. The affinity of the test compound was estimated from a plot of fluorescence versus concentration of test compound added.
A basal level of FXR: peptide formation is observed in the absence of added ligand. Ligands that promote the complex formation induce a concentration-dependent increase in time-resolved fluorescent signal. Compounds which bind equally well to both monomeric FXR and to the FXR: peptide complex would be expected to give no change in signal, whereas ligands which bind preferentially to the monomeric receptor would be expected to induce a concentration-dependent decrease in the observed signal.
Human FXRα Ligand Binding Domain (FXRα LBD) was expressed in E. coli strain BL21 (DE3) as an amino-terminal polyhistidine tagged fusion protein. Expression was under the control of an isopropyl-13-D-thiogalactopyranoside (IPTG) inducible T7 promoter. DNA encoding this recombinant protein is subcloned into the pRSET-A expression vector (Invitrogen). The coding sequence of Human FXRα LBD was derived from Genbank accession number U 68233 (amino acids 237 to 472).
Routinely, 30-40 g cell paste (equivalent to 2-3 liters of the fermentation batch) was resuspended in 200-250 mL Tris buffered saline (TBS), pH 7.2 (25 mM Tris-hydroxymethylamino methane (Tris), 150 mM sodium chloride). Cells were lysed by passing 3 times through a French Press and cell debris was removed by centrifugation (30 minutes, 20,000×gravity, 4° C.). The cleared supernatant was filtered through course pre-filters, and TBS, pH 7.2, 500 mM imidazole was added to obtain a final imidazole concentration of 50 mM. This lysate was loaded onto a column (6×8 cm) packed with Sepharose [Ni^|| charged]Chelation resin (Pharmacia) and pre-equilibrated with TBS pH 7.2/50 mM imidazole. After washing to baseline absorbance with equilibration buffer, the column was washed with one column volume of TBS pH 7.2 containing 90 mM imidazole. FXRα LBD was eluted directly with 365 mM imidazole. Column fractions were pooled and dialyzed against TBS, pH 7.2, containing 0.5 mM EDTA and 5 mM DTT. The dialyzed protein sample was concentrated using Centri-prep 10 K (Amicon) and subjected to size exclusion, using a column (3×90 cm) packed with Sepharose S-75 resin (Pharmacia) pre-equilibrated with TBS, pH 7.2, containing 0.5 mM ethylene diamine tetraacetic acid (EDTA) and 5 mM dithiothreitol (DTT). […]

| SMILES | EC50 | Activity (pEC50) |
| --- | --- | --- |
| CC(C)c1onc(-c2c(Cl)cccc2Cl)c1COc1ccc(-c2ccc3nc(C(=O)O)cnc3c2)cc1 [Example 39, 6-[4-({[3-(2,6-Dichlorophenyl)-5-(1-methylethyl)-4-isoxazolyl]methyl}oxy)phenyl]-2-quinoxalinecarboxylic acid] | 102 to 1000 nM | – |
| Cc1ccnc(C)c1-c1noc(C(C)C)c1COc1ccc(-c2ccc3nc(C(=O)O)ccc3c2)cc1 [Example 29, 6-[4-({[3-(2,4-Dimethyl-3-pyridinyl)-5-(1-methylethyl)-4-isoxazolyl]methyl}oxy)phenyl]-2-quinolinecarboxylic acid] | 102 to 1000 nM | – |
| Cc1nc2ccc(-c3ccc(OCc4c(-c5c(Cl)cccc5Cl)noc4C(C)C)cc3)cc2cc1C(=O)O [Example 35, 6-[4-({[3-(2,6-Dichlorophenyl)-5-(1-methylethyl)-4-isoxazolyl]methyl}oxy)phenyl]-2-methyl-3-quinolinecarboxylic acid] | 102 to 1000 nM | – |
| CC(C)c1onc(-c2c(Cl)cccc2Cl)c1COc1ccc(-c2ccc3nc(C(=O)O)ccc3c2)cc1 [Example 1i, Sodium 6-[4-({[3-(2,6-dichlorophenyl)-5-(1-methylethyl)-4-isoxazolyl]methyl}oxy)phenyl]-2-quinolinecarboxylate] | – | ++ (++ indicates a pEC50 6-6.99) |
| Cc1cccc(C)c1OCc1noc(C(C)C)c1COc1ccc(-c2ccc3nc(C(=O)O)ccc3c2)cc1 [Example 18, 6-[4-({[3-{[(2,6-Dimethylphenyl)oxy]methyl}-5-(1-methylethyl)-4-isoxazolyl]methyl}oxy)phenyl]-2-quinolinecarboxylic acid] | 102 to 1000 nM | – |
| CC(C)c1onc(-c2c(Cl)cccc2Cl)c1COc1ccc(-c2ccc3nc(C(=O)O)ccc3c2)cc1 [Example 1h, Potassium 6-[4-({[3-(2,6-Dichlorophenyl)-5-(1-methylethyl)-4-isoxazolyl]methyl}oxy)phenyl]-2-quinolinecarboxylic Acid] | – | ++ (++ indicates a pEC50 6-6.99) |
| O=C(O)c1ccc2cc(-c3ccc(OCc4c(-c5c(Cl)cccc5Cl)noc4C4CCC4)cc3)ccc2n1 [Example 7, 6-[4-({[5-Cyclobutyl-3-(2,6-dichlorophenyl)-4-isoxazolyl]methyl}oxy)phenyl]-2-quinolinecarboxylic acid] | 102 to 1000 nM | – |
| CC[C@H](C)c1onc(-c2c(Cl)cccc2Cl)c1COc1ccc(-c2ccc3nc(C(=O)O)ccc3c2)cc1 [Example 13, 6-{4-[({3-(2,6-Dichlorophenyl)-5-[(1S)-1-methylpropyl]-4-isoxazolyl}methyl)oxy]phenyl}-2-quinolinecarboxylic acid] | 102 to 1000 nM | – |
| O=C(O)c1ccc2cc(-c3ccc(OCc4c(-c5c(Cl)cncc5Cl)noc4C4CC4)cc3)ccc2n1 [Example 12, 6-[4-({[5-Cyclopropyl-3-(3,5-dichloro-4-pyridinyl)-4-isoxazolyl]methyl}oxy)phenyl]-2-quinolinecarboxylic acid] | 102 to 1000 nM | – |
| CC(C)c1onc(C[S+]([O-])c2c(Cl)cccc2Cl)c1COc1ccc(-c2ccc3nc(C(=O)O)ccc3c2)cc1 (stereo not shown) [Example 23, 6-[4-({[3-{[(2,6-Dichlorophenyl)sulfinyl]methyl}-5-(1-methylethyl)-4-isoxazolyl]methyl}oxy)phenyl]-2-quinolinecarboxylic acid] | 102 to 1000 nM | – |
| O=C(O)c1ccc2cc(-c3ccc(OCc4c(-c5c(Cl)cncc5Cl)noc4C4CCC4)cc3)ccc2n1 [Example 8] | 102 to 1000 nM | – |
| CC(C)c1onc(CNc2c(Cl)cccc2Cl)c1COc1ccc(-c2ccc3nc(C(=O)O)ccc3c2)cc1 [Example 21, 6-[4-({[3-{[(2,6-Dichlorophenyl)amino]methyl}-5-(1-methylethyl)-4-isoxazolyl]methyl}oxy)phenyl]-2-quinolinecarboxylic acid] | 102 to 1000 nM | – |
| Cc1nc(C(=O)O)nc2ccc(-c3ccc(OCc4c(-c5c(Cl)cccc5Cl)noc4C(C)C)cc3)cc12 [Example 37, 6-[4-({[3-(2,6-Dichlorophenyl)-5-(1-methylethyl)-4-isoxazolyl]methyl}oxy)phenyl]-4-methyl-2-quinazolinecarboxylic acid] | 102 to 1000 nM | – |
